The values below come from article PMC7717579, “Phosphoregulation of HORMA domain protein HIM-3 promotes asymmetric synaptonemal complex disassembly in meiotic prophase in Caenorhabditis elegans” (PLoS Genetics, 2020).

Non-standard residues stand in square brackets, D forms with d. Residues, ends and D or L forms follow the SMILES beside them. *: point of attachment. FITC = O=C1OC2(c3ccc(O)cc3Oc3cc(O)ccc32)c2ccc(NC(=S)*)cc21; pY = N[C@@H](Cc1ccc(OP(=O)(O)O)cc1)C(=O)O; pS = N[C@@H](COP(=O)(O)O)C(=O)O; Ahx = NCCCCCC(=O)O

This experiment addresses T1, HTP-2 protein (full length) (Caenorhabditis elegans, UniProt Q95XC8).
T1 sequence (Q95XC8 1-352): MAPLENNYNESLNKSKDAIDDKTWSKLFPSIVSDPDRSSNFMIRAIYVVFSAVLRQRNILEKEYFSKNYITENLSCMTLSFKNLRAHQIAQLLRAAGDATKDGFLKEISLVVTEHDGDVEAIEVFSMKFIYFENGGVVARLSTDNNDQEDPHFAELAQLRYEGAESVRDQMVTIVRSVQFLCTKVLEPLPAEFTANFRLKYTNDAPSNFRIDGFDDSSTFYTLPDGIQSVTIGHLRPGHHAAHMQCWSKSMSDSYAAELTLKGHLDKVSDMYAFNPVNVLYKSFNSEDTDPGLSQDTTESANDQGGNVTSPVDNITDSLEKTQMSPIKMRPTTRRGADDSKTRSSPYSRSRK
Briefly: Fluorescence polarization (FP) peptide binding assay. As to conditions: for Kd (HTP-2 binding): FP, 50 nM FITC-tagged HIM-3 closure motif peptide, various concentrations of bacterially purified full-length HTP-2, 20 mM Tris pH 7.5, 300 mM NaCl, 10% glycerol, 1 mM DTT, 0.1% NP-40, 1 hour at room temperature, single-site binding model, triplicated measurements. The text has this:
To understand regulation of meiotic proteins by post-translational modification, we previously carried out mass spectrometry to identify phosphorylated proteins in C. elegans adult hermaphrodites. […] We detected phosphopeptides containing Ser282 either singly or in combination with Ser274, Ser277, or Tyr279, and the most commonly-observed peptide contained doubly-phosphorylated Ser277/Ser282 (Fig 1A and S1 Table). Among the three most C-terminal phosphoresidues, which reside within the conserved closure motif, Tyr279 and Ser or Thr at position 282 are conserved features among nematode HIM-3 orthologs (Fig 1A). […] More recent studies further identified this C-terminus region containing Ser375 to be the closure motif, able to be bound by the HORMA domain of HORMAD1 itself and HORMAD2 [27, 34]. While phosphorylation at the closure motif is conserved between C. elegans HIM-3 and mouse HORMAD1 (S1 Fig), the function is not understood. Since other HORMA family proteins, HTP-1 and -2, are known to bind the HIM-3 closure motif in C. elegans, we first examined if phosphorylation affects HTP-1/2 binding to HIM-3 in vitro. A previous study has shown that both HTP-1 and -2 proteins bind unmodified HIM-3 peptides containing the closure motif in a fluorescence polarization (FP) peptide binding assay. Examination of the crystal structure resolved by the same study led us to predict that phosphorylation at Ser282 would likely interfere with HTP-1/2 binding (Fig 1B). We conducted a similar FP peptide binding assay using purified HTP-2 and fluorescently tagged HIM-3 closure motif peptides containing various modifications (Fig 1C).
Fig 1 Phosphorylation at the HIM-3 closure motif prevents HTP-1/2 binding in vitro. A, top: Schematic diagram of HIM-3, showing the HORMA domain (magenta) and phosphorylation sites identified by mass spectrometry in red. The conserved closure motif is underlined. bottom: Conservation of the Tyr and Ser/Thr, highlighted in orange, in the closure motif in eight Caenorhabditis species. B, left: Diagram of hierarchical binding of HTP-1, 2, 3 and HIM-3 from. center, diagram of possible multivalent binding modes of the axial element, based on. right, Interactions between the HIM-3 closure motif (magenta) and the HTP-2 (grey) HORMA domain shown in PDB structure 4TZL [27]. C, Fluorescence polarization peptide binding assay using bacterially purified HTP-2 protein (full length) and fluorescently tagged HIM-3 peptides with indicated phosphorylation or Ala substitution. Wild type means HIM-3 peptides with no phosphorylation. Phosphorylation at Ser282 inhibits HTP-2 binding in vitro. Error bars are calculated as the SD from triplicated measurements. […]
Fluorescein (FITC) conjugated peptides for the FP assay were synthesized by either Scrum Inc. or Eurofins Inc. as shown in S2 Table. […] For the fluorescence assay, synthesized peptides were first resuspended in DMSO, then diluted into binding buffer (20 mM Tris pH 7.5, 300 mM NaCl, 10% glycerol, 1 mM DTT, 0.1% NP-40). Reactions of 50 μl total volume containing 50 nM peptide and various concentrations of HTP-2 proteins were incubated for 1 hour at room temperature, then fluorescence polarization was measured in 384-well plates using a TECAN Infinite M1000 PRO fluorescence plate reader. Binding data were analyzed with Graphpad Prism version 6.0h for Macintosh (GraphPad Software, La Jolla California USA) using a single-site binding model.

What is called Kd is the free concentration of one partner at which half of the binding sites on the other are occupied at equilibrium, for simple one-to-one binding. Regarding `CC[C@H](C)[C@H](NC(=O)CNC(=O)[C@H](CCC(N)=O)NC(=O)[C@H](CO)NC(=O)[C@H](CC(C)C)NC(=O)CNC(=O)[C@H](Cc1ccc(OP(=O)(O)O)cc1)NC(=O)[C@@H]1CCCN1C(=O)[C@H](CO)NC(=O)[C@H](CC(=O)O)NC(=O)[C@H](CCCNC(=N)N)NC(=O)[C@H](CO)NC(=O)[C@@H](NC(=O)[C@H](CCCNC(=N)N)NC(=O)CCCCCNC(=S)Nc1ccc2c(c1)C(=O)OC21c2ccc(O)cc2Oc2cc(O)ccc21)[C@@H](C)CC)C(=O)N[C@H](C(=O)N[C@@H](CCCCN)C(=O)O)[C@@H](C)O` [Y279phos] ({FITC-Ahx}-RISRDSP[pY]GLSQGITK-OH), the Kd stood at 16.1 µM.
“{FITC}-[Ahx]RISRDSP[pY]GL[pS]QGITK-OH [Y279phos_S282phos, FITC-tagged HIM-3 closure motif peptide phosphorylated at Tyr279 and Ser282]”: the “Kd (HTP-2 binding)” value is given as “not significant binding”.
On to “{FITC}-[Ahx]RISRDSPYGL[pS]QGITK-OH [S282phos, FITC-tagged HIM-3 closure motif peptide phosphorylated at Ser282]”, for which the “Kd (HTP-2 binding)” value is “not significant binding”.
Consider `CC[C@H](C)[C@H](NC(=O)CNC(=O)[C@H](CCC(N)=O)NC(=O)[C@H](C)NC(=O)[C@H](CC(C)C)NC(=O)CNC(=O)[C@H](Cc1ccc(O)cc1)NC(=O)[C@@H]1CCCN1C(=O)[C@H](CO)NC(=O)[C@H](CC(=O)O)NC(=O)[C@H](CCCNC(=N)N)NC(=O)[C@H](CO)NC(=O)[C@@H](NC(=O)[C@H](CCCNC(=N)N)NC(=O)CCCCCNC(=S)Nc1ccc2c(c1)C(=O)OC21c2ccc(O)cc2Oc2cc(O)ccc21)[C@@H](C)CC)C(=O)N[C@H](C(=O)N[C@@H](CCCCN)C(=O)O)[C@@H](C)O` [S282A] ({FITC-Ahx}-RISRDSPYGLAQGITK-OH), for which the Kd was determined as 11.3 µM.
With `CC[C@H](C)[C@H](NC(=O)CNC(=O)[C@H](CCC(N)=O)NC(=O)[C@H](CO)NC(=O)[C@H](CC(C)C)NC(=O)CNC(=O)[C@H](Cc1ccc(O)cc1)NC(=O)[C@@H]1CCCN1C(=O)[C@H](CO)NC(=O)[C@H](CC(=O)O)NC(=O)[C@H](CCCNC(=N)N)NC(=O)[C@H](CO)NC(=O)[C@@H](NC(=O)[C@H](CCCNC(=N)N)NC(=O)CCCCCNC(=S)Nc1ccc2c(c1)C(=O)OC21c2ccc(O)cc2Oc2cc(O)ccc21)[C@@H](C)CC)C(=O)N[C@H](C(=O)N[C@@H](CCCCN)C(=O)O)[C@@H](C)O` [unphosphorylated peptides] ({FITC-Ahx}-RISRDSPYGLSQGITK-OH), the Kd came out at 5.8 µM.
